Converted amounts (≈) assume the structure as drawn.
What was measured:
Bombesin BB1 = Bombesin BB1 (Homo sapiens, UniProt P28336); experiment: Radioligand binding assay, Bombesin BB1; conditions: CONC. 10 μM, hum
Procedure: (§1) Methods employed in this study have been adapted from the scientific literature to maximize reliability and reproducibility. Reference standards were run as an integral part of each assay to ensure the validity of the results obtained. Assays were performed under conditions described in the accompanying “Methods” section below. The literature reference(s) for each assay are in the “Literature References” section.
(§2) Where presented, IC50 values were determined by a non-linear, least squares regression analysis using MathIQ™ (ID Business Solutions Ltd., UK). Where inhibition constants (KI) are presented, the KI values were calculated using the equation of Cheng and Prusoff (Cheng, Y., Prusoff, W. H., Biochem. Pharmacol. 22:3099-3108, 1973) using the observed IC50 of the tested compound, the concentration of radioligand employed in the assay, and the historical values for the KD of the ligand (obtained experimentally at Ricerca Biosciences, LLC). Where presented, the Hill coefficient (nH), defining the slope of the competitive binding curve, was calculated using MathIQ™. […] Where IC50, KI, and/or nH data are presented without Standard Error of the Mean (SEM), data are insufficient to be quantitative, and the values presented (KI, IC50, nH) should be interpreted with caution. […]

[1] = molecular target: T1, N-Formyl Peptide Receptor FPR1 (Homo sapiens, UniProt P21462); experiment: Radioligand binding assay, N-Formyl Peptide Receptor FPR1; conditions: CONC. 10 μM, hum
T1 sequence (P21462 1-350): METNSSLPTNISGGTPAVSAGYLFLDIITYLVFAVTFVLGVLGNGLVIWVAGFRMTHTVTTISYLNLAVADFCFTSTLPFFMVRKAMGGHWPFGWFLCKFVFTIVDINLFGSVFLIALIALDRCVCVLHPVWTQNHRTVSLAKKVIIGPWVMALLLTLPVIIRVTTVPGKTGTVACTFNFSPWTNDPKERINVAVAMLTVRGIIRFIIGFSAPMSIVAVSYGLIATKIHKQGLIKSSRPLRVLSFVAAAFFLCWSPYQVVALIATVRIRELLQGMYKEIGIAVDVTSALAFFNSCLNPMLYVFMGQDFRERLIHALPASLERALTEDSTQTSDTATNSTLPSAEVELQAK
Procedure: as §1, §2

[2] = Screen at 10 μM against 168 targets; format: binding
S. xylosus = experiment: In vitro activity (MIC) against S. xylosus strains

Sequence of Bombesin BB1 (P28336 whole entry): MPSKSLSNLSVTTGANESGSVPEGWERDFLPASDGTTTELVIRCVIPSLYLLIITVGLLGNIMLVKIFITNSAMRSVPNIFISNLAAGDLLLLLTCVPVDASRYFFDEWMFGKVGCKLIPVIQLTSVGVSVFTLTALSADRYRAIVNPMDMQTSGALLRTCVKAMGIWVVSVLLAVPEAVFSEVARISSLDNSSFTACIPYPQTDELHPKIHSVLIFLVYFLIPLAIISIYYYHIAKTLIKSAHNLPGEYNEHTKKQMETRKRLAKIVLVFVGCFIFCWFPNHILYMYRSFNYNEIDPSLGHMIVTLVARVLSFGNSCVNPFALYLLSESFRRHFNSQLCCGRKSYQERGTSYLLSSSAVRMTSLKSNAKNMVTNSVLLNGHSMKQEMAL

Row | SMILES | inhibition at 10 µM (Bombesin BB1) | inhibition at 10 µM [1] | hits (50% effect, either inhibition or stimulation) in screen against 168 targets [2] | MIC (S. xylosus; Staphylococcus xylosus) | MIC (S. xylosus; strain S. xylosus 346)
1 | COC1/C=C/O[C@@]2(C)Oc3c(C)c(O)c4c(O)c(c5c(c4c3C2=O)NC2C=C(C)C=CN52)NC(=O)/C(C)=C\C=C\C(C)C(O)C(C)C(O)C(C)C(O)C1C (stereo partly drawn) [25-desacetyl rifaximin] | > 50% | > 50% | two “hits” | 2 µg/mL (≈ 2.68 µM) | 2 µg/mL (≈ 2.68 µM)
2 | CO[C@H]1/C=C/O[C@@]2(C)Oc3c(C)c(O)c4c(O)c(c5c(nc6cc(C)ccn65)c4c3C2=O)NC(=O)/C(C)=C\C=C\[C@H](C)[C@H](O)[C@@H](C)[C@@H](O)[C@@H](C)[C@H](OC(C)=O)[C@@H]1C [Rifaximin, reference compound] | < 50% | < 50% |  | 0.5 µg/mL (≈ 0.636 µM) | 0.5 µg/mL (≈ 0.636 µM)

— US9364467B2 (Salix Pharmaceuticals, Ltd, priority 2012, dated 2016)
